Patent publication US20080234345A1, “METHOD FOR REDUCING OR ALLEVIATING INFLAMMATION IN THE DIGESTIVE TRACT” (Gene Logic Inc., priority 2006, published 2008)

Assays:
[1] = test system: NF-κB dependent transcription; experiment: In vivo LPS induced NF-κB dependent transcription in NF-κB::Luc mice, abdominal imaging
Excerpt: More particularly, transgenic NF-κB::Luc mice were generated using three NF-κB response elements from the Igκ light chain promoter fused to a firefly luciferase gene as described by Carlsen et al. (2002) J. Immunol. 168:1441-1446. Pronuclear microinjection of purified construct DNA was used to generate transgenic founders in the C57BL/6 XCBA/J background. Founders were subsequently back crossed to the C57BL/6 albino background. All experimental protocols were approved by the Institutional Animal Care and Use Committee and conform to the ILAR guide for the care and used of laboratory animals. For in vivo imaging, NF-κB::Luc mice were injected intraperitoneally with luciferin (150 mg/kg) 10 minutes before imaging, anesthetized (using 1-3% isoflurane) and placed into a light-tight camera box. […] Signal data were also quantitated and archived using the Living Image® software. Photons of light were quantitated using an oval region of interest (ROI) of varying sizes depending on the procedure, as described further below.
GL1001 was further tested for in vivo anti-inflammatory activity by examining its effects on bacterial LPS induced NF-κB dependent transcription, in NF-κB::Luc mice. […] Mice were subjected to quantitative abdominal imaging at 2, 4 and 6 h following LPS administration, as described above. […] Luciferase signal was quantitated from several regions of interest. […]

[2] = test system: NF-κB dependent transcription; experiment: LPS induced NF-κB dependent transcription in extracted organs of NF-κB::Luc mice (luciferase lysate assay); assay type: in vivo; settings: GL1001 30 mg/kg, LPS 0.5 mg/kg, vs LPS alone
Excerpt: For luciferase assays, organs were extracted and snap frozen in liquid nitrogen. AII tissue samples were placed in lysis buffer with inhibitors (Passive Lysis Buffer (Promega) and Complete Mini Protease Inhibitor Cocktail (Roche, Indianapolis, Ind.)), and were homogenized using a tissue homogenizer (Handishear, Hand-held homogenizer, VirTis, Gardiner, N.Y.). Tissue homogenates were centrifuged and clarified lysates were used for luminometer assays and western blots. For the luminometer assays, Luciferase Assay Substrate (Luciferase Assay System, Promega) was prepared as indicated by the manufacturer and placed in disposable cuvettes. […] Background luminescence readings were obtained and the background readings were subtracted from the luminescent data. Protein concentrations were determined using the BCA Protein Assay Kit (Pierce, Rockford, Ill.) following the manufacturer's protocols and analyzed using a VERSAmax tunable microplate reader and associated Softmax Pro version 3.1.2 software (Molecular Devices, Sunnyvale Calif.). The luminescence for each of the protein lysates was calculated as arbitrary units of light per microgram of protein. […]
GL1001 was further tested for in vivo anti-inflammatory activity by examining its effects on bacterial LPS induced NF-κB dependent transcription, in NF-κB::Luc mice. […] Luciferase signal was quantitated from several regions of interest. […]

[3] = test system: NF-κB dependent transcription; experiment: In vivo basal NF-κB dependent transcription in NF-κB::Luc reporter mice, abdominal imaging; settings: 4 hours
Excerpt: GL1001 was further tested for in vivo anti-inflammatory activity by examining its effects on basal levels of NF-κB dependent transcription in mice engineered in the germline with a construct containing an NF-κB enhancer linked to a luciferase gene (i.e., NF-κB::Luc mice), such that this NF-κB reporter construct is present in all cells of the mice.
More particularly, transgenic NF-κB::Luc mice were generated using three NF-κB response elements from the Igκ light chain promoter fused to a firefly luciferase gene as described by Carlsen et al. (2002) J. Immunol. 168:1441-1446. Pronuclear microinjection of purified construct DNA was used to generate transgenic founders in the C57BL/6 XCBA/J background. Founders were subsequently back crossed to the C57BL/6 albino background. […] Signal data were also quantitated and archived using the Living Image® software. Photons of light were quantitated using an oval region of interest (ROI) of varying sizes depending on the procedure, as described further below.
To test for in vivo effects of GL1001 on basal levels of NF-κB dependent transcription, male NF-κB::Luc mice were subjected to quantitative in vivo imaging of the abdominal area (using a fixed ROI of 2.76×3.7 cm) as described above, immediately before, and at 2, […]

[4] = test system: activator protein-1 (AP-1); experiment: Basal in vivo reporter luciferase expression in AP-1::Luc mice; settings: AP-1::Luc mice (data not shown)
[5] = test system: DSS-induced colitis in Balb/c mice; experiment: DSS-induced histological effects in colon of Balb/c mice (Example 6); assay type: in vivo
Experimental: A study was designed with five groups of Balb/c mice: naïve control, DSS followed by vehicle, DSS followed by dexamethasone 3 mg/kg/day, DSS followed by GL1001 10 mg/kg/day, and DSS followed by GL1001 100 mg/kg/day. Administration of DSS was via drinking water (DSS 5% in water), from day 0 to day 7 of the study. […] Administration of vehicle, dexamethasone and GL1001 was subcutaneous, once daily, from day 7 until termination of the study (day 14).
At termination of the study, samples from proximal, transverse and distal portions of the colon of each animal were collected for histological analysis, which included: • (a) inflammation score (0-5), based on leukocyte infiltration in mucosa and submucosa, crypt abcess and edema; • (b) glandular score (0-5), based on crypt destruction (crypts function to produce mucin and generate epithelium); and • (c) erosion score (0-5), based on integrity of epithelium or degree of ulceration thereof. A total histopathological score was obtained by adding the scores from (a), (b) and (c) above.

[6] = GL1001 100 mg/kg/day s.c. once daily

CC(C)C[C@H](N[C@@H](Cc1cncn1Cc1cc(Cl)cc(Cl)c1)C(=O)O)C(=O)O [GL1001, (S,S)-2-[1-carboxy-2-[3-(3,5-dichlorobenzyl)-3H-imidazol-4-yl]-ethylamino]-4-methylpentanoic acid] was tested, and the “LPS induced NF-κB signaling response, abdominal region” value ([1]; GL1001 30, 100, 300 mg/kg s.c. 1 hour before LPS i.v. (FIG. 4)) was “significantly reduced”, the “LPS induced NF-κB signaling” value ([1]; at 30 and 100 mg/kg, dose range 3-100 mg/kg (FIG. 5)) was “significantly reduced” and the “LPS induced NF-κB signaling in pancreas and uterus, or any other organ analyzed” value [2] was “no statistically significant decrease”. The “reduction of LPS induced NF-κB-dependent transcription in stomachs” value [2] was “about 37 fold”, the “inhibition of basal in vivo levels of NF-κB dependent transcription in abdominal ROI” value ([3]; 300 mg/kg subcutaneous, p<0.01) was “over 40%” and the “inhibition of basal in vivo levels of NF-κB dependent transcription in abdominal ROI” value ([3]; both lower doses, subcutaneous) was “lesser but still significant extents”. The “basal in vivo levels of reporter luciferase expression” value [4] was “no significant effect”, the histological effect ([5]; GL1001 10 mg/kg/day s.c.) was “No significant histological effect” and the “micrograph of distal colon section (FIG. 14)” value ([5]; GL1001 100 mg/kg s.c. once daily, one animal) was “Inflammation and gland loss are mild, and no erosion is seen”. For the same molecule, the “erosion score, distal colon” value [5, 6] was “significantly reduced”, the “glandular score, distal colon” value [5, 6] was “significantly reduced” and the “inflammation score, distal colon” value [5, 6] was “significantly reduced”. For the same molecule, the “total histopathological score, distal colon” value [5, 6] was “significantly reduced” and the “disease activity (based on fecal samples)” value ([5]; s.c. once daily day 7-14, dexamethasone 3 mg/kg/day, GL1001 10 and 100 mg/kg/day) was “No significant improvement”.
